Results from PubChem BioAssay (NCI).
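Each compound was tested at five concentrations against cells in 96-well plates for 48 hours. GI50 marks 50% less growth. TGI: concentration producing complete growth inhibition.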

Key:
Experiment in all cases: NCI tumour cell line growth inhibition, 48 h
MDA-MB-435 = test system: MDA-MB-435
NCI/ADR-RES ovarian = test system: NCI/ADR-RES ovarian
K-562 leukemia = test system: K-562 leukemia
A549 NSCLC = test system: A549 NSCLC
NCI-H522 lung = test system: NCI-H522 lung
BT-549 breast = test system: BT-549 breast
SK-OV-3 ovarian = test system: SK-OV-3 ovarian
SF-295 CNS = test system: SF-295 CNS
A498 renal = test system: A498 renal
OVCAR-3 ovarian = test system: OVCAR-3 ovarian
MALME-3M melanoma = test system: MALME-3M melanoma
UACC-62 melanoma = test system: UACC-62 melanoma
SK-MEL-5 melanoma = test system: SK-MEL-5 melanoma
SW-620 colon = test system: SW-620 colon
HS 578T breast = test system: HS 578T breast
SF-268 CNS = test system: SF-268 CNS
HL-60(TB) leukemia = test system: HL-60(TB) leukemia
TK-10 renal = test system: TK-10 renal
ACHN renal = test system: ACHN renal
COLO 205 colon = test system: COLO 205 colon
PC-3 prostate = test system: PC-3 prostate
SN12C renal = test system: SN12C renal
OVCAR-8 ovarian = test system: OVCAR-8 ovarian
HT29 colon = test system: HT29 colon
MCF7 breast = test system: MCF7 breast
HOP-62 NSCLC = test system: HOP-62 NSCLC
SF-539 CNS = test system: SF-539 CNS
SNB-19 CNS = test system: SNB-19 CNS

## CC/C(=C(/c1ccc(O)cc1)c1ccc(OCCN2CCCCC2)cc1)c1ccc(OC)cc1
MDA-MB-435
  GI50: 1.58 µM
  TGI: 3.1 µM
NCI/ADR-RES ovarian
  GI50: 8.15 µM
  TGI: 22.4 µM
K-562 leukemia
  GI50: 0.29 µM
  TGI: 1.16 µM
A549 NSCLC
  GI50: 4.11 µM
  TGI: 15.4 µM
NCI-H522 lung
  GI50: 3.41 µM
  TGI: 13.7 µM
BT-549 breast
  GI50: 1.6 µM
  TGI: 3.19 µM
SK-OV-3 ovarian
  GI50: 14 µM
  TGI: 27.3 µM
SF-295 CNS
  GI50: 1.79 µM
  TGI: 3.62 µM
A498 renal
  GI50: 4.29 µM
  TGI: 17.6 µM
OVCAR-3 ovarian
  GI50: 1.6 µM
  TGI: 4.23 µM
MALME-3M melanoma
  GI50: 1.42 µM
  TGI: 2.98 µM
UACC-62 melanoma
  GI50: 2.01 µM
  TGI: 4.03 µM
SK-MEL-5 melanoma
  GI50: 1.79 µM
  TGI: 3.21 µM
SW-620 colon
  GI50: 1.77 µM
  TGI: 3.89 µM
HS 578T breast
  GI50: 2.09 µM
  TGI: 5.52 µM
SF-268 CNS
  GI50: 2.14 µM
  TGI: 6.38 µM
HL-60(TB) leukemia
  GI50: 1.99 µM
  TGI: 4.1 µM
TK-10 renal
  GI50: 14.7 µM
  TGI: 29.2 µM
ACHN renal
  GI50: 1.94 µM
  TGI: 4.15 µM
COLO 205 colon
  GI50: 1.49 µM
  TGI: 3.12 µM
PC-3 prostate
  GI50: 1.41 µM
  TGI: 3.34 µM
SN12C renal
  GI50: 2.82 µM
  TGI: 11.3 µM
OVCAR-8 ovarian
  GI50: 2.45 µM
  TGI: 6.02 µM
HT29 colon
  GI50: 1.21 µM
  TGI: 3.67 µM
MCF7 breast
  GI50: 0.0707 µM
  TGI: 2.08 µM
HOP-62 NSCLC
  GI50: 1.83 µM
  TGI: 3.91 µM
SF-539 CNS
  GI50: 1.66 µM
  TGI: 3.19 µM
SNB-19 CNS
  GI50: 1.97 µM
